The test system of the assay is E. coli. Briefly: growth and killing of E. coli on induced expression of novispirin (Suicide Expression System). It is filed as cell-based, Escherichia coli. The text has this:
In the examples below the method of the invention has been illustrated using novispirin as the antimicrobial peptide and E. coli as the host cell. To assess the sustained physiological response of E. coli to novispirin, an arabinose induction system was used to make E. coli produce novispirin at a sub-lethal rate. […] These categories comprise particularly genes related to membrane dysfunction, heat shock, phage shock and antimicrobial peptide defense.
A plasmid was constructed to investigate the transcriptional response of E. coli upon expressing Novispirin G10 in a Suicide Expression System (SES) setup. The SES takes advantage of conditionally expressing antimicrobial peptides in a sensitive host. The degree of inhibition in the host reflects the potency of the antimicrobial peptide (AMP) (WO200073433). In the current setup, the AMP is exported to the periplasmic space where it interacts with the inner and/or outer membrane of E. coli.
In order to obtain a transcriptional profile of E. coli expressing Novispirin G10, 2×10 mL sterile LB media (10 g/L Bactotryptone, 5 g/L Yeast extract, and 10 g/L NaCl) containing 100 mg/L ampicillin was inoculated with E. coli TOP10 harbouring pDRS5-novispirin and pBAD gIII A, respectively. These cultures were grown overnight at 37° C. at 180 rpm. […]

Residues, ends and D or L forms follow the SMILES beside them.

As to `CC[C@H](C)[C@H](NC(=O)CNC(=O)[C@H](CCCCN)NC(=O)[C@H](CCCNC(=N)N)NC(=O)[C@@H](NC(=O)[C@@H](NC(=O)[C@H](CCCNC(=N)N)NC(=O)[C@H](CCCNC(=N)N)NC(=O)[C@H](CC(C)C)NC(=O)[C@H](CC(N)=O)NC(=O)[C@@H](N)CCCCN)[C@@H](C)CC)[C@@H](C)CC)C(=O)N[C@@H](Cc1c[nH]cn1)C(=O)N[C@H](C(=O)N[C@H](C(=O)N[C@@H](CCCCN)C(=O)N[C@@H](CCCCN)C(=O)N[C@@H](Cc1ccc(O)cc1)C(=O)NCC(=O)O)[C@@H](C)CC)[C@@H](C)CC` [Novispirin G10] (H-KNLRRIIRKGIHIIKKYG-OH; N-terminus assumed), the “growth rate on induction of novispirin expression” value (arabinose induction, sub-lethal rate, growth was not completely inhibited) is recorded as “reduced the growth rate significantly”. Further, the “inhibition and killing of the host when the AMP is expressed” value (expressed and exported to the periplasmic space, as opposed to adding purified peptide to a cell culture) was “prolong the inhibition and delay killing”.

The values above are taken from patent US20090239757A1, “Control Sequences Responding to AMP and Uses Thereof” (priority 2004, published 2009).
